Reference: PMC5529566, “The cryo-EM structure of gastric H^+,K^+-ATPase with bound BYK99, a high-affinity member of K^+-competitive, imidazo[1,2-a]pyridine inhibitors” (Scientific Reports, 2017)

What was measured:
H^+,K^+-ATPase WT = target: T1, H^+,K^+-ATPase WT (Sus scrofa, UniProt P19156); experiment: K^+-competitive inhibition of H^+,K^+-ATPase activity, 96-well ATPase assay, wild-type; assay type: biochemical, pig; settings: for -fold increase in K i compared with wild-type / Ki: WT; for Ki: global fitting, mean ± SEM
T1 construct: made in house; host or cells: HEK293S GnT1- cells (BacMam baculovirus transduction); permeabilised membrane fractions

H^+,K^+-ATPase D136A = H^+,K^+-ATPase D136A (Sus scrofa, UniProt P19156, D137A); experiment: ATPase assay, D136A mutant; settings: for -fold increase in K i compared with wild-type: D136A
H^+,K^+-ATPase D136L = H^+,K^+-ATPase D136L (Sus scrofa, UniProt P19156, D137L); experiment: ATPase assay, D136L mutant; settings: for -fold increase in K i compared with wild-type: D136L
H^+,K^+-ATPase D136I = H^+,K^+-ATPase D136I (Sus scrofa, UniProt P19156, D137I); experiment: ATPase assay, D136I mutant; settings: for -fold increase in K i compared with wild-type: D136I
H^+,K^+-ATPase D136F = H^+,K^+-ATPase D136F (Sus scrofa, UniProt P19156, D137F); experiment: ATPase assay, D136F mutant; settings: for -fold increase in K i compared with wild-type: D136F
H^+,K^+-ATPase D137A = H^+,K^+-ATPase D137A (Sus scrofa, UniProt P19156, D138A); experiment: ATPase assay, D137A mutant; settings: for -fold increase in K i compared with wild-type: D137A
H^+,K^+-ATPase D137L = H^+,K^+-ATPase D137L (Sus scrofa, UniProt P19156, D138L); experiment: ATPase assay, D137L mutant; settings: for -fold increase in K i compared with wild-type: D137L
H^+,K^+-ATPase D137I = H^+,K^+-ATPase D137I (Sus scrofa, UniProt P19156, D138I); experiment: ATPase assay, D137I mutant; settings: for -fold increase in K i compared with wild-type: D137I
H^+,K^+-ATPase D137F = H^+,K^+-ATPase D137F (Sus scrofa, UniProt P19156, D138F); experiment: ATPase assay, D137F mutant; settings: for -fold increase in K i compared with wild-type: D137F
H^+,K^+-ATPase N138A = H^+,K^+-ATPase N138A (Sus scrofa, UniProt P19156, N139A); experiment: ATPase assay, N138A mutant; settings: for -fold increase in K i compared with wild-type: N138A
H^+,K^+-ATPase N138L = H^+,K^+-ATPase N138L (Sus scrofa, UniProt P19156, N139L); experiment: ATPase assay, N138L mutant; settings: for -fold increase in K i compared with wild-type: N138L
H^+,K^+-ATPase N138I = H^+,K^+-ATPase N138I (Sus scrofa, UniProt P19156, N139I); experiment: ATPase assay, N138I mutant; settings: for -fold increase in K i compared with wild-type: N138I
H^+,K^+-ATPase N138F = H^+,K^+-ATPase N138F (Sus scrofa, UniProt P19156, N139F); experiment: ATPase assay, N138F mutant; settings: for -fold increase in K i compared with wild-type: N138F
H^+,K^+-ATPase L139A = H^+,K^+-ATPase L139A (Sus scrofa, UniProt P19156, L140A); experiment: ATPase assay, L139A mutant; settings: for -fold increase in K i compared with wild-type: L139A
H^+,K^+-ATPase L139I = H^+,K^+-ATPase L139I (Sus scrofa, UniProt P19156, L140I); experiment: ATPase assay, L139I mutant; settings: for -fold increase in K i compared with wild-type: L139I
H^+,K^+-ATPase L139F = H^+,K^+-ATPase L139F (Sus scrofa, UniProt P19156, L140F); experiment: ATPase assay, L139F mutant; settings: for -fold increase in K i compared with wild-type: L139F
H^+,K^+-ATPase Y140A = H^+,K^+-ATPase Y140A (Sus scrofa, UniProt P19156, Y141A); experiment: ATPase assay, Y140A mutant; settings: for -fold increase in K i compared with wild-type: Y140A
H^+,K^+-ATPase Y140L = H^+,K^+-ATPase Y140L (Sus scrofa, UniProt P19156, Y141L); experiment: ATPase assay, Y140L mutant; settings: for -fold increase in K i compared with wild-type: Y140L
H^+,K^+-ATPase Y140I = H^+,K^+-ATPase Y140I (Sus scrofa, UniProt P19156, Y141I); experiment: ATPase assay, Y140I mutant; settings: for -fold increase in K i compared with wild-type: Y140I
H^+,K^+-ATPase Y140F = H^+,K^+-ATPase Y140F (Sus scrofa, UniProt P19156, Y141F); experiment: ATPase assay, Y140F mutant; settings: for -fold increase in K i compared with wild-type: Y140F
H^+,K^+-ATPase L141I = H^+,K^+-ATPase L141I (Sus scrofa, UniProt P19156, L142I); experiment: ATPase assay, L141I mutant; settings: for -fold increase in K i compared with wild-type: L141I
H^+,K^+-ATPase A335G = H^+,K^+-ATPase A335G (Sus scrofa, UniProt P19156, A336G); experiment: ATPase assay, A335G mutant; settings: for -fold increase in K i compared with wild-type: A335G
H^+,K^+-ATPase Y799A = H^+,K^+-ATPase Y799A (Sus scrofa, UniProt P19156, Y800A); experiment: ATPase assay, Y799A mutant; settings: for -fold increase in K i compared with wild-type: Y799A
H^+,K^+-ATPase Y799F = H^+,K^+-ATPase Y799F (Sus scrofa, UniProt P19156, Y800F); experiment: ATPase assay, Y799F mutant; settings: for -fold increase in K i compared with wild-type: Y799F
H^+,K^+-ATPase L809F = H^+,K^+-ATPase L809F (Sus scrofa, UniProt P19156, L810F); experiment: ATPase assay, L809F mutant
[1] = target: H^+,K^+-ATPase A335C/C813A (Sus scrofa, UniProt P19156, A336C/C814A); experiment: ATPase assay, A335C/C813A mutant
H^+,K^+-ATPase = H^+,K^+-ATPase (Sus scrofa, UniProt P19156); experiment: Dose-dependent inhibition of H^+,K^+-ATPase activity in the presence of 10 mM KCl
Protocol: Reactions were initiated by incubating at 37 °C using a thermal cycler, and maintained for 1 to 5 h (depending on the activity). Reactions were terminated by withdrawing 40 μL from the 80 μL reactant, and mixing with 80 μL of stop solution comprising 6% ascorbic acid and 2% ammonium molybdate in 1 N HCl, followed by the addition of 120 μL of 2% sodium arsenate, 2% sodium citrate, and 2% acetic acid. The amount of released inorganic phosphate was determined colorimetrically[39] from absorbance at 850 nm by the microplate reader (TECAN).

Sequence of H^+,K^+-ATPase Y140A (P19156 whole entry Y141A): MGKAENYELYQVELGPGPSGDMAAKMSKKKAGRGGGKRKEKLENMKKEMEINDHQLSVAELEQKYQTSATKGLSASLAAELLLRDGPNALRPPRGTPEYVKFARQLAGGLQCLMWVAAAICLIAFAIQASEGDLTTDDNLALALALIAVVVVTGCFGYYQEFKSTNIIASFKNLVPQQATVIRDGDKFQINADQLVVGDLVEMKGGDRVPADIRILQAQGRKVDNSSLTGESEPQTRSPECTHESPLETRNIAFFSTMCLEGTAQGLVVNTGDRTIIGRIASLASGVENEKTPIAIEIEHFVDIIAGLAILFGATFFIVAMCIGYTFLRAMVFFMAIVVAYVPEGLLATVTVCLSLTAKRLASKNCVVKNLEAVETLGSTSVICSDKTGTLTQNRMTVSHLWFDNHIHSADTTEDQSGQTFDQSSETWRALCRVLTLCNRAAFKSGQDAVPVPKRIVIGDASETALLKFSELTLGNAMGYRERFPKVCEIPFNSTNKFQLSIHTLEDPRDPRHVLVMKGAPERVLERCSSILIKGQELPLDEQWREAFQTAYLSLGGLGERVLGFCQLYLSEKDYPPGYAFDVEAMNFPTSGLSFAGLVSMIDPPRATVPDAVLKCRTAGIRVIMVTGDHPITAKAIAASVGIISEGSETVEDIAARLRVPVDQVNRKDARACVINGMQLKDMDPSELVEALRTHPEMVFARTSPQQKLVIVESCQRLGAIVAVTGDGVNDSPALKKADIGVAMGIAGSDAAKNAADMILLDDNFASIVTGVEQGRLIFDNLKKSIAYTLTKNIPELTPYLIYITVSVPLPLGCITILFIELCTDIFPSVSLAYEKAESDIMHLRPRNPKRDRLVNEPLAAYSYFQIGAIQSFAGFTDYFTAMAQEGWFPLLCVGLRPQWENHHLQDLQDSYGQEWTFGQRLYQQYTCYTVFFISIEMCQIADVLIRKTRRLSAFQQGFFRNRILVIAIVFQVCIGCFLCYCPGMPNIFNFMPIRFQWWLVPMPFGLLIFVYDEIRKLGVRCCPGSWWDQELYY
Sequence of H^+,K^+-ATPase Y140A (P18434 whole entry partner): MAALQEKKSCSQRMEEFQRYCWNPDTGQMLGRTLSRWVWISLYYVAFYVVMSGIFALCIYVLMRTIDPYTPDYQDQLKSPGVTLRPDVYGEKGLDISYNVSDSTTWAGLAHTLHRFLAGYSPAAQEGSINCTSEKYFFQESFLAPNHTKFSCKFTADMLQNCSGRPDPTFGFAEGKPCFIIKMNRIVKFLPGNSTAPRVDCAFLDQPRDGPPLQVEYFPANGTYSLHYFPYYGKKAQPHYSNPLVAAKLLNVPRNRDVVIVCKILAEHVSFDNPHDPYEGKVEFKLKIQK
Sequence of H^+,K^+-ATPase Y799A (P19156 whole entry Y800A): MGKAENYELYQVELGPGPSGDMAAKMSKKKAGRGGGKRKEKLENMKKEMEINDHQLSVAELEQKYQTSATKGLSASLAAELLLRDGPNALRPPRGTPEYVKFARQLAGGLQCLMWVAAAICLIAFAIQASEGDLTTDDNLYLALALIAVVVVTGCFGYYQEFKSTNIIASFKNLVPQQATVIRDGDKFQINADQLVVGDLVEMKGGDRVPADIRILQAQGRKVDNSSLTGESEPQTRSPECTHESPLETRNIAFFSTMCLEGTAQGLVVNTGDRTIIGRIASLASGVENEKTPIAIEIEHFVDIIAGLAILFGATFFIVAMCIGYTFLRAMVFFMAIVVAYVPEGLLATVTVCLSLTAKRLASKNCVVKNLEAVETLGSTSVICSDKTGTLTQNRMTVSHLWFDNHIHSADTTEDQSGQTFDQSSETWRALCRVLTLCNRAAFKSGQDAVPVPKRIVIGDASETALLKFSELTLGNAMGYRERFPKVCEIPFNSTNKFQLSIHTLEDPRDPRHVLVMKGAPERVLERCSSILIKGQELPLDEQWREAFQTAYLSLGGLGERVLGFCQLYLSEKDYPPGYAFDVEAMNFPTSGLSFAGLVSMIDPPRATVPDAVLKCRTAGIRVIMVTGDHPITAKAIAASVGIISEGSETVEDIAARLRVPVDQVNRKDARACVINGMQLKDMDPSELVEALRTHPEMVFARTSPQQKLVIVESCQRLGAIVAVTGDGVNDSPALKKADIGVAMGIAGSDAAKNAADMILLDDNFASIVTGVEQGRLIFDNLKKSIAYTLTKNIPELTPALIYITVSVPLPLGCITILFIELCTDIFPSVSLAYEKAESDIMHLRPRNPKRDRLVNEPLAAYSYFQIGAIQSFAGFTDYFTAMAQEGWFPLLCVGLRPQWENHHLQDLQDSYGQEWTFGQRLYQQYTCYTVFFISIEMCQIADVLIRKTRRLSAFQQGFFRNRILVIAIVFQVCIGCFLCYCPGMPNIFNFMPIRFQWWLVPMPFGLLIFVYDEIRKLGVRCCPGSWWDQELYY
Sequence of H^+,K^+-ATPase Y799A (P18434 whole entry partner): as the sequence (P18434 whole entry partner) above
Sequence of H^+,K^+-ATPase N138F (P19156 whole entry N139F): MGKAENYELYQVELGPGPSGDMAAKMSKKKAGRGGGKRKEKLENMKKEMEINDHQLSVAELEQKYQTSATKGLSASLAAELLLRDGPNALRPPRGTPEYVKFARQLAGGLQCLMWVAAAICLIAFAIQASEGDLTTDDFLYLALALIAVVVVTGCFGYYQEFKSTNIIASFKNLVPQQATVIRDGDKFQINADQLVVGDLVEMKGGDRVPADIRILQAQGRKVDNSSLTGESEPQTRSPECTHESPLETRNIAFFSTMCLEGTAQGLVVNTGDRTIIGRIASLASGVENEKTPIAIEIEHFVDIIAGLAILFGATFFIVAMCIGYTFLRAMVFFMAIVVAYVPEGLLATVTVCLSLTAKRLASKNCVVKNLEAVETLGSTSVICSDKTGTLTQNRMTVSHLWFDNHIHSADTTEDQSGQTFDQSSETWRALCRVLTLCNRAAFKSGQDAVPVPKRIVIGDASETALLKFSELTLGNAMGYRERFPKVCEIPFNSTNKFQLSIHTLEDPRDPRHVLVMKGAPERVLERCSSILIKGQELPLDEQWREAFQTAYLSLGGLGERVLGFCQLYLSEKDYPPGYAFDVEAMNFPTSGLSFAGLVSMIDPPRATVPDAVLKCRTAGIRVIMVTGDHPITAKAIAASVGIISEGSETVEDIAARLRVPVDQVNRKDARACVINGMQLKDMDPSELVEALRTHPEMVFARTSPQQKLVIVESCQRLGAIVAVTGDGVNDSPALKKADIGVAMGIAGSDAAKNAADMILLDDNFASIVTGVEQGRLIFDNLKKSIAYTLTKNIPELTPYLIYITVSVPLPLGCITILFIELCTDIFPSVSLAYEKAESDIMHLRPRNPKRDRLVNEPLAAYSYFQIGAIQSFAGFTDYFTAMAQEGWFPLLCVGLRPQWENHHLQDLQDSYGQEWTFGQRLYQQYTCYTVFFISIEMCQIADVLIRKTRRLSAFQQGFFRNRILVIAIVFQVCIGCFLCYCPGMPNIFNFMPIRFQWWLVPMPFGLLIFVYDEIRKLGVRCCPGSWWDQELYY
Sequence of H^+,K^+-ATPase N138F (P18434 whole entry partner): as the sequence (P18434 whole entry partner) above
Sequence of H^+,K^+-ATPase N138A (P19156 whole entry N139A): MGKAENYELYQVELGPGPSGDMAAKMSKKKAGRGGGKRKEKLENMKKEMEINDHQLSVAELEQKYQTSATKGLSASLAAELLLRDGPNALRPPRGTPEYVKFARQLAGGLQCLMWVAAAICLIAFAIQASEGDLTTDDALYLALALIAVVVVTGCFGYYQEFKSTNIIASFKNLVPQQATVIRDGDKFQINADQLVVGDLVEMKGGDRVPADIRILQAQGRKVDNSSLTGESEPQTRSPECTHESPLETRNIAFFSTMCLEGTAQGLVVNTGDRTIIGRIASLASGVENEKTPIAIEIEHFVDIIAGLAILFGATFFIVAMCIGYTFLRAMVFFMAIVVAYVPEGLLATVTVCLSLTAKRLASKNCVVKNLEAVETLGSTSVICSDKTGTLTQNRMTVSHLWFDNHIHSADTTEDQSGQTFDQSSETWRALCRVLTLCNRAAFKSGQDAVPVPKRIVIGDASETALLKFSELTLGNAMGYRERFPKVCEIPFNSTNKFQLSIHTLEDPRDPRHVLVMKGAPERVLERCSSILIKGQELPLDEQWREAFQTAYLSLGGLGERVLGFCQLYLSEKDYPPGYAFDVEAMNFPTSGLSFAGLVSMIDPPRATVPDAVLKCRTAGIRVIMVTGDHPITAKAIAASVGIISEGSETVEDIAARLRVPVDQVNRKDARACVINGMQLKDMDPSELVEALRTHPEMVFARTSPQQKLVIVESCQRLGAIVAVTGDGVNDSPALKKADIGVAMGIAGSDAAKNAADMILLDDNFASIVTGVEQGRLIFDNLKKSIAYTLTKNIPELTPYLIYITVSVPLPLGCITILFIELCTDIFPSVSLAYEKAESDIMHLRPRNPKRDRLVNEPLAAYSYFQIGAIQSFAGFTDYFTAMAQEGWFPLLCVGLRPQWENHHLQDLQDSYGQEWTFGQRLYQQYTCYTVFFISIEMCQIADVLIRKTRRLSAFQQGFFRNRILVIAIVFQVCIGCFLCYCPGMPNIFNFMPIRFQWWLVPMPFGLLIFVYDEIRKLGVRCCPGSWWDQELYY
Sequence of H^+,K^+-ATPase N138A (P18434 whole entry partner): as the sequence (P18434 whole entry partner) above

## N#CCc1cnc2c(OCc3ccccc3)cccn12 [SCH-Me^−]
H^+,K^+-ATPase WT
  -fold increase in K i compared with wild-type: 1.0 fold
  Ki: 11 ± 0.1 µM
H^+,K^+-ATPase D136A
  Ki: 11 ± 1 µM
  -fold increase in K i compared with wild-type: 1.0 fold
H^+,K^+-ATPase D136L
  Ki: 5.4 ± 0.5 µM
  -fold increase in K i compared with wild-type: 0.5 fold
H^+,K^+-ATPase D136I
  Ki: 6.8 ± 0.6 µM
  -fold increase in K i compared with wild-type: 0.6 fold
H^+,K^+-ATPase D136F
  Ki: 6.7 ± 0.5 µM
  -fold increase in K i compared with wild-type: 0.6 fold
H^+,K^+-ATPase D137A
  Ki: 61 ± 7 µM
  -fold increase in K i compared with wild-type: 5.5 fold
H^+,K^+-ATPase D137L
  Ki: 270 ± 100 µM
  -fold increase in K i compared with wild-type: 25 fold
H^+,K^+-ATPase D137I
  Ki: 170 ± 40 µM
  -fold increase in K i compared with wild-type: 16 fold
H^+,K^+-ATPase D137F
  Ki: 34 ± 7 µM
  -fold increase in K i compared with wild-type: 3.1 fold
H^+,K^+-ATPase N138A
  Ki: 0.56 ± 0.08 µM
  -fold increase in K i compared with wild-type: 0.05 fold
H^+,K^+-ATPase N138L
  Ki: 23 ± 7 µM
  -fold increase in K i compared with wild-type: 2.1 fold
H^+,K^+-ATPase N138I
  Ki: 0.95 ± 0.23 µM
  -fold increase in K i compared with wild-type: 0.09 fold
H^+,K^+-ATPase N138F
  Ki: 320 ± 300 µM
  -fold increase in K i compared with wild-type: 29 fold
H^+,K^+-ATPase L139A
  Ki: 8.7 ± 0.7 µM
  -fold increase in K i compared with wild-type: 0.8 fold
H^+,K^+-ATPase L139I
  Ki: 2.3 ± 0.3 µM
  -fold increase in K i compared with wild-type: 0.2 fold
H^+,K^+-ATPase L139F
  Ki: 13 ± 1 µM
  -fold increase in K i compared with wild-type: 1.2 fold
H^+,K^+-ATPase Y140A
  Ki: 13 ± 1 µM
  -fold increase in K i compared with wild-type: 1.2 fold
H^+,K^+-ATPase Y140L
  Ki: 3.7 ± 0.4 µM
  -fold increase in K i compared with wild-type: 0.3 fold
H^+,K^+-ATPase Y140I
  Ki: 5 ± 0.8 µM
  -fold increase in K i compared with wild-type: 0.5 fold
H^+,K^+-ATPase Y140F
  Ki: 21 ± 3 µM
  -fold increase in K i compared with wild-type: 1.9 fold
H^+,K^+-ATPase L141I
  Ki: 7.3 ± 0.8 µM
  -fold increase in K i compared with wild-type: 0.7 fold
H^+,K^+-ATPase A335G
  Ki: 1.6 ± 0.2 µM
  -fold increase in K i compared with wild-type: 0.15 fold
H^+,K^+-ATPase Y799A
  Ki: 740 ± 170 µM
  -fold increase in K i compared with wild-type: 67 fold
H^+,K^+-ATPase Y799F
  Ki: 31 ± 3 µM
  -fold increase in K i compared with wild-type: 2.8 fold
H^+,K^+-ATPase L809F
  Ki: 110 ± 20 µM
H^+,K^+-ATPase L809F; L809F
  -fold increase in K i compared with wild-type: 10 fold
[1]
  Ki: 4200 ± 2300 µM
[1]; A335C/C813A
  -fold increase in K i compared with wild-type: 382 fold
H^+,K^+-ATPase
  IC50: 54 µM

## Cc1nc2c3c(ccn2c1C)[C@@H](O)[C@H](O)[C@@H](c1ccccc1)N3C [BYK73]
H^+,K^+-ATPase WT
  -fold increase in K i compared with wild-type: 1.0 fold
  Ki: 4.9 ± 0.4 µM
H^+,K^+-ATPase WT; WT enzyme
  fold lower affinity compared with BYK99: 1000 fold
H^+,K^+-ATPase D136A
  Ki: 9 ± 0.5 µM
  -fold increase in K i compared with wild-type: 1.8 fold
H^+,K^+-ATPase D136L
  Ki: 3.2 ± 0.2 µM
  -fold increase in K i compared with wild-type: 0.7 fold
H^+,K^+-ATPase D136I
  Ki: 6.7 ± 0.4 µM
  -fold increase in K i compared with wild-type: 1.4 fold
H^+,K^+-ATPase D136F
  Ki: 4 ± 0.2 µM
  -fold increase in K i compared with wild-type: 0.8 fold
H^+,K^+-ATPase D137A
  Ki: 120 ± 30 µM
  -fold increase in K i compared with wild-type: 25 fold
H^+,K^+-ATPase D137L
  Ki: > 100 µM
  -fold increase in K i compared with wild-type: > 20 fold
H^+,K^+-ATPase D137I
  Ki: 32 ± 5 µM
  -fold increase in K i compared with wild-type: 6.5 fold
H^+,K^+-ATPase D137F
  Ki: 110 ± 10 µM
  -fold increase in K i compared with wild-type: 22 fold
H^+,K^+-ATPase N138A
  Ki: 6.6 ± 0.8 µM
  -fold increase in K i compared with wild-type: 1.3 fold
H^+,K^+-ATPase N138L
  Ki: > 100 µM
  -fold increase in K i compared with wild-type: > 20 fold
H^+,K^+-ATPase N138I
  Ki: 62 ± 17 µM
  -fold increase in K i compared with wild-type: 13 fold
H^+,K^+-ATPase N138F
  Ki: > 100 µM
  -fold increase in K i compared with wild-type: > 20 fold
H^+,K^+-ATPase L139A
  Ki: 5.8 ± 0.6 µM
  -fold increase in K i compared with wild-type: 1.2 fold
H^+,K^+-ATPase L139I
  Ki: 1.7 ± 0.2 µM
  -fold increase in K i compared with wild-type: 0.3 fold
H^+,K^+-ATPase L139F
  Ki: 8.9 ± 0.7 µM
  -fold increase in K i compared with wild-type: 1.8 fold
H^+,K^+-ATPase Y140A
  Ki: 14 ± 2 µM
  -fold increase in K i compared with wild-type: 2.9 fold
H^+,K^+-ATPase Y140L
  Ki: 6.5 ± 0.6 µM
  -fold increase in K i compared with wild-type: 1.3 fold
H^+,K^+-ATPase Y140I
  Ki: 4 ± 0.5 µM
  -fold increase in K i compared with wild-type: 0.8 fold
H^+,K^+-ATPase Y140F
  Ki: 7.6 ± 0.5 µM
  -fold increase in K i compared with wild-type: 1.6 fold
H^+,K^+-ATPase L141I
  Ki: 3.9 ± 0.8 µM
  -fold increase in K i compared with wild-type: 0.8 fold
H^+,K^+-ATPase A335G
  Ki: 0.078 ± 0.006 µM
  -fold increase in K i compared with wild-type: 0.016 fold
H^+,K^+-ATPase A335G; A335G vs WT
  fold increased affinity: more than 60 fold
H^+,K^+-ATPase Y799A
  Ki: > 200 µM
  -fold increase in K i compared with wild-type: > 40 fold
H^+,K^+-ATPase Y799F
  Ki: 21 ± 2.7 µM
  -fold increase in K i compared with wild-type: 4.3 fold
H^+,K^+-ATPase
  IC50: 29 µM
